Legend:
[1] = patients with hypertrophic cardiomyopathy; no control group; cited from earlier work
[2] = Clinical safety and tolerability evaluation with 12-electrode electrocardiogram, single oral administration (Example 1); conditions: healthy subjects; for QRS / QTcF: oral
Method: Randomized, double-blind, placebo-controlled, sequential, ascending, single dosing studies were conducted to evaluate safety, tolerability, pharmacokinetics and pharmacodynamics of cibenzoline.
In this study, a total of 24 subjects were randomly assigned 1:1:1 to three cohorts and proceeded in a total of four stages: screening, treatment period 1, withdrawal period, and treatment period 2. The ratio between the dosed group and the non-dosed group (placebo) is assigned as 6:2.
The main endpoints are safety, tolerability and side effects, and the clinical test items are corrected QT interval (calculated by Fridericia formula) [QTc(F)]), QT interval, and QRS interval, PR interval, and 12-electrode electrocardiogram including ventricular rate, vital signs (blood pressure, pulse, body temperature, respiration rate), hypersensitivity reaction (determined by electrocardiogram recording and vital signs), clinical inspection evaluation (hematology, blood chemistry, urinalysis, etc.), adverse reactions (including serious adverse reactions).

[3] = Clinical safety and tolerability evaluation with electrocardiogram, repeated oral administration (Example 2); format: in vivo, human; conditions: cohorts 4 and 5: 200 mg once a day for 5 days and 300 mg once a day for 14 days, healthy subjects
[4] = Cohort 1: 200 mg once, Day 1, 1.5 h after administration
[5] = Cohort 1: 200 mg once, Day 1, 3 h after administration
[6] = Cohort 1: 200 mg once, Day 1, 8 h after administration
[7] = Cohort 1: 200 mg once, Day 1 before administration (baseline)
[8] = Cohort 2: 300 mg once, Day 1, 1.5 h after administration
[9] = Cohort 2: 300 mg once, Day 1, 3 h after administration
[10] = Cohort 2: 300 mg once, Day 1, 8 h after administration
[11] = Cohort 2: 300 mg once, Day 1 before administration (baseline)

## c1ccc(C2(c3ccccc3)CC2C2=NCCN2)cc1 (racemic) [cibenzoline, 2-(2,2-diphenylcyclopropyl)-4,5-dihydro-1H-imidazole]
[1]
  side effects compared with disopyramide: fewer side effects than disopyramide

## c1ccc(C2(c3ccccc3)CC2C2=NCCN2)cc1 (stereo not drawn) [S(−)-cibenzoline]
[2]; 200 mg and 300 mg once a day, single oral administration, compared to cohort 3 (racemic mixture 150 mg 3 times a day)
  side effects (safety and tolerability): did not cause significant side effects
[2]; [4]
  QRS: 102 ms
  QTcF: 412 ms
[2]; [5]
  QRS: 107 ms
  QTcF: 426 ms
[2]; [6]
  QRS: 99 ms
  QTcF: 408 ms
[2]; [7]
  QRS: 92 ms
  QTcF: 406 ms
[2]; [8]
  QRS: 107 ms
  QTcF: 419 ms
[2]; [9]
  QRS: 116 ms
  QTcF: 429 ms
[2]; [10]
  QRS: 107 ms
  QTcF: 415 ms
[2]; [11]
  QRS: 101 ms
  QTcF: 411 ms
[2]; cohorts 1 and 2: 200 mg and 300 mg, single oral administration
  effects of QcTF and QRS prolongation (electrocardiography): QcTF and QRS prolongation were confirmed
[3]
  effects of QcTF and QRS prolongation (electrocardiography): QcTF and QRS prolongation were confirmed
[3]; compared to cohort 6 (racemic mixture 150 mg 3 times a day, 14 days)
  side effects for multiple administration (safety and tolerability): did not cause significant side effects

Source: patent US12419863B2, “Pharmaceutical composition for use in treatment of hypertrophic cardiomyopathy” (CELLTRION INC., priority 2018, dated 2025)
